The source of these data is ChEMBL document CHEMBL1201862, “PubChem BioAssay data set” (2004).

Common to all, as to assay: DTP human tumour cell line panel, 48 h
Experiment [1] deals with HCT-15.
Experiment [2] relates to HOP-62.
Experiment [3] relates to HOP-92.
Experiment [4] relates to Hs-578T.
Experiment [5] concerns KM12.
Experiment [6] concerns M14.
The subject of experiment [7] is MOLT-4.
For experiment [8], the system named is Malme-3M.
Experiment [9] deals with NCI-H226.
For experiment [10], the system named is NCI/ADR-RES.
The test system of experiment [11] is OVCAR-5.
Experiment [12] relates to OVCAR-8.
Experiment [13] deals with RPMI-8226.
The test system of experiment [14] is RXF 393.
For experiment [15], the system named is SF-539.
Experiment [16] concerns SK-MEL-5.
In experiment [17] the test system is SK-OV-3.
The subject of experiment [18] is SNB-19.
In experiment [19] the test system is SR.
Experiment [20] deals with SW-620.

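The compound was tested at five concentrations on cells cultured in 96-well plates, with a 48-hour exposure period. At the GI50, growth is halved.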 Calls of active or inactive are those of the source. Rule as the data show it: active = GI50 up to about 1.1 µM and inactive = higher.

By GI50 is commonly meant the concentration giving 50% growth inhibition. Take `O=C1N[C@@H]2c3c(Br)sc(Br)c3C(=O)[C@@H]2O1`: the GI50 in experiment [1] was 1.91 µM; in experiment [2] it was 22 µM (inactive); in experiment [3], 5.14 µM (inactive); in [4], 19.7 µM (inactive); in experiment [5] it was 10.7 µM (inactive); in [6], 1.97 µM (inactive). In addition, the GI50 in experiment [7] was 1.89 µM (inactive); in experiment [8], 2.59 µM (inactive); in experiment [9] it was 9.66 µM (inactive); in experiment [10], 3.66 µM (inactive); in experiment [11] it was 13.7 µM (inactive); in experiment [12], 2.11 µM (inactive). The GI50 in [13] is 5.12 µM (inactive); in experiment [14], 2.2 µM (inactive); in [15], 10.3 µM (inactive); in [16], 6.59 µM (inactive); in [17], 18.7 µM (inactive); in [18], 15.8 µM (inactive). The GI50 in [19] is 1.81 µM (inactive); in experiment [20] it was 1.96 µM (inactive).

On to `O=P(O)(O)CCP(=O)(O)O`, for which the GI50 in [1] was greater than 100 µM; in experiment [2], > 100 µM (inactive); in experiment [3], > 100 µM (inactive); in experiment [4], > 100 µM (inactive); in experiment [5], > 100 µM (inactive); in experiment [6], > 100 µM (inactive). The GI50 in experiment [7], in experiment [8], in [10], in experiment [11], in [12] and in experiment [13] was > 100 µM (inactive) each time. For the same compound, the GI50 in experiment [14], in experiment [15], in experiment [16], in [17], in experiment [18] and in experiment [19] was > 100 µM (inactive) in each case. The GI50 in [20] is > 100 µM (inactive).

Consider `CCOC(=O)/C=C/C1=C(Br)[C@@]2(C)CC[C@@H]3c4ccc(O)cc4CC[C@H]3[C@@H]2C1`, for which the GI50 was 12.1 µM in experiment [1]; 14.4 µM (inactive) in [2]; 11.6 µM (inactive) in experiment [3]; 15.6 µM (inactive) in experiment [4]; 16.2 µM (inactive) in [5]; 11.7 µM (inactive) in [6]. Also, the GI50 in experiment [7] is 12.5 µM (inactive); in experiment [8], 12 µM (inactive); in [9], 15.2 µM (inactive); in experiment [10], 14.7 µM (inactive); in experiment [11], 15.2 µM (inactive); in experiment [13], 2.17 µM (inactive). For the same compound, the GI50 in experiment [14] was 15.7 µM (inactive); in experiment [15] it was 17 µM (inactive); in experiment [16], 13.6 µM (inactive); in experiment [17] it was 15.4 µM (inactive); in [18], 16.6 µM (inactive); in experiment [19], 7.03 µM (inactive). Moreover, the GI50 in experiment [20] was 13.7 µM (inactive).

Take `Cc1ccc(S(N)(=O)=O)cc1` [P-TOLUENESULFONAMIDE]: the GI50 was greater than 1000 µM in [1]; > 1000 µM (inactive) in [2]; 558 µM (inactive) in experiment [3]; > 1000 µM (inactive) in experiment [4]; > 1000 µM (inactive) in experiment [5]; > 1000 µM (inactive) in experiment [6]. In addition, the GI50 in experiment [7], in experiment [8], in experiment [9], in [10], in experiment [11] and in experiment [12] was > 1000 µM (inactive) in each case. Besides, the GI50 in experiment [13] was > 1000 µM (inactive); in [14], 502 µM (inactive); in [15], > 1000 µM (inactive); in experiment [16], > 1000 µM (inactive); in [17] it was > 1000 µM (inactive); in experiment [18] it was > 1000 µM (inactive). Further, the GI50 in experiment [19] and in experiment [20] was > 1000 µM (inactive) throughout.

On to `CC(NC(=O)C(C)C(=O)Nc1ccc(C(F)(F)F)cc1)C(N)=O` (stereo not given), for which the GI50 is greater than 100 µM in [1]; > 100 µM (inactive) in [3]; > 100 µM (inactive) in experiment [4]; > 100 µM (inactive) in experiment [5]; > 100 µM (inactive) in experiment [6]; > 10 µM (inactive) in [7]. Besides, the GI50 in experiment [8], in experiment [9], in experiment [10], in [11], in experiment [12] and in [13] was > 100 µM (inactive) throughout. In addition, the GI50 is > 100 µM (inactive) in experiment [14]; > 100 µM (inactive) in [15]; > 100 µM (inactive) in experiment [16]; > 100 µM (inactive) in experiment [17]; 94 µM (inactive) in experiment [18]; > 10 µM (inactive) in experiment [19]. The GI50 in experiment [20] was > 100 µM (inactive).

For `CC(=O)c1ccc(Br)cc1NC1=CC(=O)c2ncccc2C1=O`, the GI50 in [1] is 2.69 µM; in experiment [2], 3.47 µM (inactive); in [3] it was 12.2 µM (inactive); in [4], 17.1 µM (inactive); in experiment [5] it was 1.83 µM (inactive); in experiment [6], 2.22 µM (inactive). Besides, the GI50 is 2.29 µM (inactive) in [7]; 1.64 µM (inactive) in experiment [8]; 3.64 µM (inactive) in experiment [9]; 3.9 µM (inactive) in experiment [10]; 13.1 µM (inactive) in experiment [11]; 5.53 µM (inactive) in experiment [12]. Besides, the GI50 in experiment [13] was 2.18 µM (inactive); in experiment [14] it was 5.13 µM (inactive); in experiment [15] it was 2.56 µM (inactive); in experiment [16], 0.322 µM (active); in [17], 15.7 µM (inactive); in experiment [18], 3.84 µM (inactive). Besides, the GI50 in experiment [19] was 2.22 µM (inactive).

With `Cc1cc(C)n(CN(Cn2nc(C)cc2C)C2CCCCC2)n1`, the GI50 is 20.6 µM in [1]; 31.3 µM (inactive) in experiment [2]; 28.8 µM (inactive) in experiment [3]; > 100 µM (inactive) in experiment [4]; 21.2 µM (inactive) in experiment [5]; 20.3 µM (inactive) in experiment [6]. For the same compound, the GI50 was 20.5 µM (inactive) in [8]; 19.8 µM (inactive) in experiment [10]; 22.9 µM (inactive) in [11]; 25.7 µM (inactive) in experiment [12]; 18.6 µM (inactive) in experiment [13]; 22.4 µM (inactive) in experiment [14]. In addition, the GI50 in [15] was 15.7 µM (inactive); in experiment [16] it was 31.2 µM (inactive); in experiment [17] it was 38 µM (inactive); in experiment [18] it was 85.1 µM (inactive); in experiment [19], 30.1 µM (inactive); in experiment [20] it was 29.7 µM (inactive).

As to `Cc1c(Cc2ccccc2)c(Cc2ccccc2)c(C)[s+]1[O-]`, the GI50 in [1] was 31.3 µM; in experiment [2] it was 50.4 µM (inactive); in experiment [3] it was 27.4 µM (inactive); in [4], 37.8 µM (inactive); in experiment [5] it was 17.3 µM (inactive); in [6], 21.2 µM (inactive). In addition, the GI50 in experiment [7] was 14.7 µM (inactive); in [8] it was 33.2 µM (inactive); in experiment [10] it was 19.7 µM (inactive); in experiment [11], 20.1 µM (inactive); in experiment [12], 41.3 µM (inactive); in [13] it was 19.7 µM (inactive). Besides, the GI50 is 20.6 µM (inactive) in experiment [14]; 45.2 µM (inactive) in experiment [15]; 15.6 µM (inactive) in experiment [16]; 40.3 µM (inactive) in [17]; 47.1 µM (inactive) in [18]; 19.8 µM (inactive) in [19]. Further, the GI50 in [20] is 26.4 µM (inactive).

Take `O=C1CC(=O)n2cnc3cccc(c32)N1`: the GI50 in experiment [1] was greater than 100 µM; in experiment [2], > 100 µM (inactive); in experiment [3] it was > 100 µM (inactive); in experiment [4], > 100 µM (inactive); in [5], > 100 µM (inactive); in experiment [6], > 100 µM (inactive). For the same compound, the GI50 in [8], in experiment [9], in experiment [10], in experiment [11], in experiment [12] and in experiment [13] was > 100 µM (inactive) in each case. Moreover, the GI50 in experiment [14], in [15], in [16], in experiment [17], in experiment [18] and in experiment [19] was > 100 µM (inactive) throughout. Also, the GI50 in experiment [20] is > 100 µM (inactive).

Consider `O=C1NC2c3c(I)sc(I)c3C(O)C2O1` (stereo not given), for which the GI50 in [1] is greater than 100 µM; in experiment [2], > 100 µM (inactive); in experiment [3], > 100 µM (inactive); in [4], > 100 µM (inactive); in [5], > 100 µM (inactive); in [6], > 100 µM (inactive). The GI50 in experiment [7], in [8], in experiment [9], in experiment [10], in [11] and in experiment [12] was > 100 µM (inactive) in each case. The GI50 in [13], in experiment [14], in experiment [15], in experiment [17], in experiment [18] and in experiment [19] was > 100 µM (inactive) each time. In addition, the GI50 in experiment [20] is > 100 µM (inactive).

As to `C=CCOc1ccc(C2C(C(=O)OCC)C(=O)CC(C)(O)C2C(=O)OCC)cc1OC` (stereo not given), the GI50 was greater than 100 µM in [1]; > 100 µM (inactive) in experiment [2]; > 100 µM (inactive) in experiment [3]; > 100 µM (inactive) in experiment [4]; > 100 µM (inactive) in experiment [5]; > 100 µM (inactive) in [6]. For the same compound, the GI50 in experiment [7], in experiment [8], in experiment [9], in experiment [10], in experiment [11] and in experiment [12] was > 100 µM (inactive) throughout. The GI50 in experiment [13], in [14], in experiment [15], in experiment [16], in [18] and in [19] was > 100 µM (inactive) throughout. In addition, the GI50 in [20] is > 100 µM (inactive).
